From patent publication US9399623B2, “Quinoline derivatives and their use in neurodegenerative diseases” (Merck Patent GmbH, priority 2014, dated 2016) come the findings set out here.

In experiment [1] the target is T1, P2X7 (Homo sapiens, UniProt Q99572).
T1 sequence (Q99572 1-595): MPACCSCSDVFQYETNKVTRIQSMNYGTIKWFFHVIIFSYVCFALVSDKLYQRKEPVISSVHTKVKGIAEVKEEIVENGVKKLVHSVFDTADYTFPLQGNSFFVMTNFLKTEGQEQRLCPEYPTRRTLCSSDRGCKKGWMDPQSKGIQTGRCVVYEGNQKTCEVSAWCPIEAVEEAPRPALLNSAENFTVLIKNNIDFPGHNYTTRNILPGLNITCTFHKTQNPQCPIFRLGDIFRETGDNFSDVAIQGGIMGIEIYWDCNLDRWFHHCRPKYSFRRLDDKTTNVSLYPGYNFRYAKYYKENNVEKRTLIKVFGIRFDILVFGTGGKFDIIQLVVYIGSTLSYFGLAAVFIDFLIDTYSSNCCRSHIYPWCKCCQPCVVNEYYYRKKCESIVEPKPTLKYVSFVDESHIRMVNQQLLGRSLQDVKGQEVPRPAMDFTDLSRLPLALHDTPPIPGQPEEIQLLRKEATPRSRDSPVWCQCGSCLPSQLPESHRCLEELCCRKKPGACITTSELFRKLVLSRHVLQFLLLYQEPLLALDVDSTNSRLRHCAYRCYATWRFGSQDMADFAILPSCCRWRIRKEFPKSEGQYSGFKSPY
The experiment in a line: Pore permeation assay (YO PRO dye uptake, BzATP-induced). It counts as cell-based. Also noted: expressed in transfected cells; host or cells: HEK293. Conditions: HEK293 transfected with human P2X7 receptor; YO PRO dye 1 uM, BzATP 10 uM; read-out: hP2X7 IC50. The essentials: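 HEK293 cells overexpressing human P2X7, plated overnight at 37 C, preincubated 20 min at room temperature with compound (10-point series from 2.5 uM) in HEPES-buffered saline pH 7.4 with 0.1 mM CaCl2. Then 10 uM BzATP plus 1 uM YO PRO added; dye uptake read by fluorescence after 30 min at room temperature.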

Experiment [2] concerns the target T1, P2X7. The experiment in a line: IL-1β release assay in THP-1 cells (sandwich ELISA). The arrangement: release of mature IL-1β in the culture medium of THP-1 cells; endogenous in cells; host or cells: THP-1 cells (PMA-differentiated, LPS-primed). Format: cell-based. The following applies: PMA, LPS primed, stimulated with 0.8 mM BzATP, mature IL-1β release, read-out: hTHP-1/IL-ib IC50. In short, it runs like this: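 THP-1 cells differentiated with 0.5 μM PMA and primed 4 h with 10 ng/ml LPS at 37° C, then preincubated 20 min with compound. Stimulated with 0.8 mM BzATP for 30 min; mature IL-1β released into the supernatant quantified by sandwich ELISA.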

For `O=C(NCC1CCC(F)(F)CC1)c1c(Cl)ccc2nc(N3CC[C@@H](O)C3)ccc12` [Compound 61], the IC50 lay in the range of 10 to 100 nM at P2X7 [1] and 101 to 500 nM at P2X7 [2].

With `COCCCOc1ccc2c(C(=O)NCC3(O)CCC(F)(F)CC3)c(Cl)ccc2n1` [Compound 62, 6-Chloro-2-(3-methoxy-propoxy)-quinoline-5-carboxylic acid (4,4-difluoro-1-hydroxy-cyclohexyl methyl)-amide], the results for the IC50 at P2X7 [1] and on P2X7 [2] were 10 to 100 nM and 101 to 500 nM, respectively.

As for `O=C(NCC1CCCC(F)(F)C1)c1c(Cl)ccc2nc(N3CCC(CCO)C3)ccc12` (centres unmarked) [Compound 63, 6-Chloro-2-(3-hydroxyethyl-pyrrolidin-1-yl)-quinoline-5-carboxylic acid (3,3-difluoro-cyclohexylmethyl)-amide], the IC50 at P2X7 [1] was 10 to 100 nM; on P2X7 [2] it was 101 to 500 nM.

For the compound `O=C(NCC1CCC(F)(F)CC1)c1c(Cl)ccc2nc(CCCO)ccc12` [Compound 64, 6-Chloro-2-(3-hydroxy-propyl)-quinoline-5-carboxylic acid (4,4-Difluorocyclohexyl methyl)-amide], the IC50 lay in the range of 10 to 100 nM on P2X7 [1] and 101 to 500 nM at P2X7 [2].

Turning to `O=C(NCC1(O)CCCCCC1)c1c(Cl)ccc2ncccc12` [Compound 65], the IC50 is 10 to 100 nM at P2X7 [1] and 101 to 500 nM at P2X7 [2].

Consider `O=C(NCC1CCC(F)(F)CC1)c1c(Cl)ccc2nc(NCCO)ccc12` [Compound 66, 6-Chloro-2-(2-hydroxy-ethylamino)-quinoline-5-carboxylic acid (4,4-difluoro-cyclohexyl methyl)-amide], for which the IC50 on P2X7 [1] and on P2X7 [2] was 10 to 100 nM each time.

Consider `CC(=O)NC1CCN(c2ccc3c(C(=O)NCC4CCC(F)(F)CC4)c(Cl)ccc3n2)C1` (centres unmarked) [Compound 67, 2-(3-Acetylamino-pyrrolidin-1-yl)-6-chloro-quinoline-5-carboxylic acid (4,4-difluoro-cyclohexylmethyl)-amide], for which the figures for the IC50 on P2X7 [1] and on P2X7 [2] were 10 to 100 nM and 101 to 500 nM, respectively.

Regarding `COCCNc1ccc2c(C(=O)NCC3CCC(F)(F)CC3)c(Cl)ccc2n1` [Compound 68, 6-Chloro-2-(2-methoxy-ethylamino)-quinoline-5-carboxylic acid (4,4-difluoro-cyclohexyl methyl)-amide], the results for the IC50 at P2X7 [1] and on P2X7 [2] were 10 to 100 nM and 500 to 999 nM, respectively.

On to `COCCCOc1ccc2c(C(=O)NCC3CCC(F)(F)CC3)c(Cl)ccc2n1` [Compound 69, 6-Chloro-2-(3-methoxy-propoxy)-quinoline-5-carboxylic acid (4,4-difluoro-cyclohexylmethyl)-amide], for which the IC50 on P2X7 [1] is 10 to 100 nM; on P2X7 [2], 101 to 500 nM.

In the case of `COCCOc1ccc2c(C(=O)NCC3CCC(F)(F)CC3)c(Cl)ccc2n1` [Compound 70, 6-Chloro-2-(2-methoxy-ethoxy)-quinoline-5-carboxylic acid (4,4-difluoro-cyclohexyl methyl)-amide], the results for the IC50 at P2X7 [1] and at P2X7 [2] were 10 to 100 nM and 101 to 500 nM, respectively.

Consider `CN(CCO)c1ccc2c(C(=O)NCC3CCC(F)(F)CC3)c(Cl)ccc2n1` [Compound 73], for which the IC50 on P2X7 [1] was in the range of 10 to 100 nM; at P2X7 [2], 101 to 500 nM.

Regarding `O=C(NCC1CCC(F)(F)CC1)c1c(Cl)ccc2nc(N3CC(F)(F)C3)ccc12` [Compound 74, 6-Chloro-2-(3,3-difluoro-azetidin-1-yl)-quinoline-5-carboxylic acid (4,4-difluoro-cyclohexylmethyl)-amide], the IC50 on P2X7 [1] and at P2X7 [2] was 101 to 500 nM in each case.

As to `O=C(NCC1(O)CCCC(F)(F)C1)c1c(Cl)ccc2nc(N3CC(F)(F)C3)ccc12` (centres unmarked) [Compound 75, 6-Chloro-2-(3,3-difluoroazetidin-1-yl)-quinoline-5-carboxylic acid (3,3-difluoro-1-hydroxycyclohexylmethyl)-amide], the IC50 at P2X7 [1] and at P2X7 [2] was 101 to 500 nM in each case.

For `O=C(NCC1(O)CCC(F)(F)CC1)c1c(Cl)ccc2ncccc12` [Compound 76], the IC50 at P2X7 [1] fell in the range of 101 to 500 nM; on P2X7 [2] it was 10 to 100 nM.

On to `O=C(NCC1CCC(F)(F)CC1)c1c(Cl)ccc2ncccc12` [Compound 78], for which the IC50 lay within 101 to 500 nM on P2X7 [1] and 10 to 100 nM at P2X7 [2].

Regarding `O=C(NC[C@]1(O)CCCC(F)(F)C1)c1c(Cl)ccc2nc(N3CCC(F)(F)C3)ccc12` [Compound 80, 6-Chloro-2-(3,3-difluoropyrrolidin-1-yl)-quinoline-5-carboxylic acid ((S)-3,3-difluoro-1-hydroxycyclohexylmethyl)-amide], the IC50 on P2X7 [1] was 101 to 500 nM; at P2X7 [2], greater than 1000 nM.
